Data published in patent US12522562B2, “Intestine-specific partial agonists of farnesoid X receptor and uses thereof” (EWHA DrugDesignHouse Co., Ltd., priority 2022, dated 2026).
Where two headings read alike, the source gives them in different places. Marks after values point to notes of the source that are not given here. One block for each molecule: values may come before it.

What was measured:
[1] = biological target: T1, LXRβ (Homo sapiens, UniProt P55055); test: Nuclear receptor selectivity panel (PathHunter NHR protein interaction assay); details: read-out: % max. rel. efficacy at 100 uM, 100 μM; relative to TO901317
T1 sequence (P55055 1-460): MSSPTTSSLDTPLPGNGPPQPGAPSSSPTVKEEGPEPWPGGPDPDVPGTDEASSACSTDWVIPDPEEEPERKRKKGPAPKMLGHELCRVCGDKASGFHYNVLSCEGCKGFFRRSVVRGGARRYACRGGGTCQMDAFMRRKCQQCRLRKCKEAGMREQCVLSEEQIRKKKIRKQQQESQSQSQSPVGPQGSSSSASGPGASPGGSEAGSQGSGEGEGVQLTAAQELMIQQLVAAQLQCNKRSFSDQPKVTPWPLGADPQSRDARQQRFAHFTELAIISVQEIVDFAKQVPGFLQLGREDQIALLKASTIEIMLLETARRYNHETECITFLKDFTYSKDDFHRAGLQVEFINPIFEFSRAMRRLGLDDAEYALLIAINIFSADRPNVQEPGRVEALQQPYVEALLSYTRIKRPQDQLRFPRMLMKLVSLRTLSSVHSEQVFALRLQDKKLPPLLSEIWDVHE

[2] = biological target: T2, PPARγ (Homo sapiens, UniProt P37231); test: as above; details: read-out: % max. rel. efficacy at 100 uM, 100 μM; relative to troglitazone
T2 sequence (P37231 1-505): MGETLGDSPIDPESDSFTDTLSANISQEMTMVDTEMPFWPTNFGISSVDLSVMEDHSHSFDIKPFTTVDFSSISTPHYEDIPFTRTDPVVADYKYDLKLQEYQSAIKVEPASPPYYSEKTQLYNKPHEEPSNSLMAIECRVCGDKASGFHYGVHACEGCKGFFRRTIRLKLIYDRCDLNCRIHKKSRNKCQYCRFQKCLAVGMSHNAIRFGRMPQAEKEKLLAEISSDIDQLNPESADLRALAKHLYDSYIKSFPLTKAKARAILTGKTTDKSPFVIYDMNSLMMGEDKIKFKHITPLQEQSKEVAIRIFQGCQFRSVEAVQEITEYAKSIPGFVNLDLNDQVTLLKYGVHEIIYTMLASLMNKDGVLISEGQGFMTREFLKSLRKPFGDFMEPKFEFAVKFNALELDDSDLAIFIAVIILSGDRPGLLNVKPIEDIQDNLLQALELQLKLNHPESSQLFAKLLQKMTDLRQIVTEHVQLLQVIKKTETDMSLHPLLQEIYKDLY

[3] = biological target: T3, FXR (Homo sapiens, UniProt Q96RI1); test: PathHunter NHR protein interaction assay, agonist mode (FXR)
T3 sequence (Q96RI1 1-486): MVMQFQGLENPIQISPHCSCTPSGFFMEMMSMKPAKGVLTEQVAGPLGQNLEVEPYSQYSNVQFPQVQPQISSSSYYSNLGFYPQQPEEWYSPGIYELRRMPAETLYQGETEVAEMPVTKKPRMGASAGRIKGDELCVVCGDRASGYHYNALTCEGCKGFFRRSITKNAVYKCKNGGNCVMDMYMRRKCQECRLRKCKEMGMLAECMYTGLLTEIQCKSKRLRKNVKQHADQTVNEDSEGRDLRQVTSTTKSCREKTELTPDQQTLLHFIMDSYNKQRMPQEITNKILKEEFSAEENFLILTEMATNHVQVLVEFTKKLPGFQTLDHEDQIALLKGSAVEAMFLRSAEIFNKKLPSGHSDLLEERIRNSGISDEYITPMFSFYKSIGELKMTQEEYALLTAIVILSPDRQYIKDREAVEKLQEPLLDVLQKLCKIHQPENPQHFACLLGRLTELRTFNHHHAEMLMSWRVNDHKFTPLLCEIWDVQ
Procedure: PathHunter® CHO-K1 FXR protein interaction cells were expanded from freezer stocks according to standard procedures. Cells were seeded in a total volume of 20 μL into white walled, 384-well microplates and incubated at 37° C. for the appropriate time prior to testing. Assay media contained charcoal-dextran filtered serum to reduce the level of hormones present. For agonist determination, cells were incubated with sample to induce response. […] For antagonist determination, cells were pre-incubated with antagonist followed by agonist challenge at the EC80 concentration. […] Microplates were read following signal generation with a PerkinElmer Envision™ instrument for chemiluminescent signal detection. Compound activity was analyzed using CBIS data analysis suite (ChemInnovation, CA). For agonist mode assays, percentage activity was calculated using the following formula: % Activity=100%×(mean RLU of test sample−mean RLU of vehicle control)/(mean MAX control ligand−mean RLU of vehicle control).
In this assay, two weakly complementing fragments of the β-galactosidase are expressed within stably transfected cells. The complementing fragments of the β-galactosidase are translationally fused to the C-terminus of a full-length FXR and to the steroid receptor coactivator peptide (SRCP), respectively. When bound by ligand, the FXR will migrate to the nucleus and recruit the SRCP domain, whereby complementation occurs, generating a unit of active β-galactosidase and production of chemiluminescent signal. Thus, measurement of chemiluminescent signal directly reflects FXR-coactivator interaction.

[4] = biological target: T4, Erα (Homo sapiens, UniProt P03372); test: Nuclear receptor selectivity panel (PathHunter NHR protein interaction assay); details: relative to 17β-estradiol
T4 sequence (P03372 1-595): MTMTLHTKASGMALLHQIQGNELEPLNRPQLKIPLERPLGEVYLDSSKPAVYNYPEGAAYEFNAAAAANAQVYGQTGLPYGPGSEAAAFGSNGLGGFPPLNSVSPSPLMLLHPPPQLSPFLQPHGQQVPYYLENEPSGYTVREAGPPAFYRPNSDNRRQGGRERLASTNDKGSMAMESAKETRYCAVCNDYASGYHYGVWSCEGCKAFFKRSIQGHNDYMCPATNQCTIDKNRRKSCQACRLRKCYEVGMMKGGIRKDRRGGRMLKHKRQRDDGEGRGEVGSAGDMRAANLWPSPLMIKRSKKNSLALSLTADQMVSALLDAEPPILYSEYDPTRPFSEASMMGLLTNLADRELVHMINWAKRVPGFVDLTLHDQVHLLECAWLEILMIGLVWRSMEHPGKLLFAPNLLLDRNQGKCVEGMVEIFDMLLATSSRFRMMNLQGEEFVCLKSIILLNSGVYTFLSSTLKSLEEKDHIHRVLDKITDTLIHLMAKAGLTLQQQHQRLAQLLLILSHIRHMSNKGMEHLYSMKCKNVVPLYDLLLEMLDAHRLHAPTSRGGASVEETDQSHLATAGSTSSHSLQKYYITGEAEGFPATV

[5] = biological target: T5, PPARδ (Homo sapiens, UniProt Q03181); test: as above; details: read-out: ref. compd (EC50); reference compound for PPARδ
T5 sequence (Q03181 1-441): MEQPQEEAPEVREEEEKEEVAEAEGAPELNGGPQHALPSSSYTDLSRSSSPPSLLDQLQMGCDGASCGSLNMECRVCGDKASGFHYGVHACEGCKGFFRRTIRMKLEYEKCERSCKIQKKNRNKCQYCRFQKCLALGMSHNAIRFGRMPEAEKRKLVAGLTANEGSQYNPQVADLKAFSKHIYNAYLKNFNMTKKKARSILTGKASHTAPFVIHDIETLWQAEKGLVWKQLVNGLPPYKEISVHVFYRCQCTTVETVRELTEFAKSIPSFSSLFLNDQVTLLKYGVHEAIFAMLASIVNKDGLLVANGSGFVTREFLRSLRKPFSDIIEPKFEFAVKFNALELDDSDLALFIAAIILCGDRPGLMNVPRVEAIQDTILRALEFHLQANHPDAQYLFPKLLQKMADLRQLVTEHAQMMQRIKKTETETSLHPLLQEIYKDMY

[6] = Fang et al., Nat. Med. 2015; cited from earlier work
[7] = biological target: T3, FXR; test: PathHunter NHR protein interaction assay, antagonist mode (GW4064 challenge at EC80); assay type: cell-based; details: pre-incubation, then GW4064 at EC80
[8] = Pharmacokinetic studies of Example 11 in rats; assay type: in vivo, Sprague-Dawley rats
Procedure: To investigate whether Example 11 is indeed an intestine-selective/specific FXR agonist, its pharmacokinetic profile was evaluated. Male Sprague-Dawley rats (7-week old, 240-260 g) were purchased from Orient Bio. Inc. (Seongnam, Korea). Rats were kept in the cage maintained under a controlled environment (temperature of 23±3° C., relative humidity of 50±5%, and 12 h dark-light cycle) for at least 3 days. Rats were fasted overnight before dose administration. The Example 11 was dissolved in a mixture of DMSO, Tween 80, and 0.9% saline solution (v:v:v, 1:1:8) at a concentration of 2.5 mg/mL for intravenous injection (IV). Also, Example 11 was dissolved in corn oil for oral administration (PO). Rats were divided into two groups; IV group and PO group including at least 6 animals per group. After anesthetized with isoflurane, rats were given the dose of 5 mg/kg via IV injection or 80 mg/kg via PO administration by oral gavage into the stomach. Blood samples (approximately 0.25 mL) were obtained by subclavian vein puncture at 0, 0.033, 0.083, 0.167, 0.333, 0.667, 1, 2, 3, 5, 7, 10, and 24 h after IV injection. After PO administration, blood samples were obtained at 0, 0.083, 0.167, 0.333, 0.667, 1, 2, 3, 5, 7, 10, and 24 h post-dose. Subsequently, blood samples were collected in 1.5-mL Eppendorf tube on an ice. The tubes were centrifuged at 13500 rpm for 15 min at 4° C. to separate the plasma fraction. Then, the plasma samples were stored at […] until HPLC analysis. To prepare the samples for HPLC analysis, 5 μL of Example 11 or Example 24 and 5 μL of internal standard, Example 4 were added to 45 μL of plasma. For extraction, 45 μL of MeCN was added to the mixture. Then, the mixture was vortexed for 2 min and centrifuged at 13500 rpm for 15 min at room temperature. The 60 μL of clear supernatant was transferred to an insert. Then, the HPLC auto-injector was programmed to inject 40 μL of the sample to the HPLC system for analysis. The linearity of the calibration curve was obtained by plotting the peak area ratio (area of Example 11 or area of Example 24/area of Example 4). Pharmacokinetic parameters were calculated by non-compartmental analysis of the plasma concentration-time profiles using Winnonlin® Professional version 8.01 software (Pharsight Corporation, Mountain View, CA). Oral bioavailability (F) was calculated by the ratio of the dose-corrected area under the plasma drug concentration-time curve (AUClast) between oral administration and intravenous injection.

[9] = system: patients with non-cirrhotic NASH; details: 100 mg, Phase II; cited from earlier work
[10] = biological target: T3, FXR; details: Chianelli et al., J. Med. Chem. 2020; cited from earlier work
[11] = system: patients with NASH; details: cited from earlier work
[12] = Table 2, 5 concentrations, 3-fold dilution from 3.3 μM (GW4064: 10 conc. from 10 μM), one experiment in duplicate, NA = inactive at 3.3 μM
[13] = Table 5, relative to GW4064, mean ± SEM of two or three independent experiments in duplicate
[14] = read-out: % max. rel. efficacy, Table 2, relative to GW4064, top conc. 3.3 μM, one experiment in duplicate
[15] = read-out: % max. rel. efficacy, Table 4, relative to GW4064, top conc. 3.3 μM, one experiment in duplicate
[16] = read-out: % max. rel. efficacy, Table 5, relative to GW4064, mean ± SEM of two or three independent experiments in duplicate
[17] = rat plasma, intravenous dose of Example 11, 5 mg/kg, Example 24 measured as metabolite
[18] = rat, intravenous dose of Example 11, 5 mg/kg, Example 24 measured as metabolite

SMILES: COC(=O)/C=C/c1cccc(N(Cc2ccc(-c3ccc(N(C)C)cc3)c(C#N)c2)C(=O)C2CCCCC2)c1 [Example 4, (E)-3-(3-((2-cyano-4′-dimethylaminobiphenyl-4-ylmethyl)cyclohexanecarbonylamino)phenyl)acrylic Acid Methyl Ester]
Emax at 100 µM [1]: < 3%
Emax at 100 µM [2]: < 3%
EC50 [3]: 1000 nM
EC50 [3, 12]: 800 nM
EC50 ([3]; Table 5, mean ± SEM of two or three independent experiments in duplicate): 800 ± 100 nM
% max. rel. efficacy [3, 13]: 40 ± 8^b %
Emax at 100 µM ([3]; read-out: % max. rel. efficacy at 100 uM, Table 3, 100 μM, relative to GW4064): 47%
Emax [3, 14]: 24%
Emax [3, 15]: 47%
Emax [3, 16]: 40 ± 8%
% max. rel. efficacy at 100 uM [4]: 1%

SMILES: O=C(O)c1ccnc(N2CC(O)(c3ccc(OCc4c(-c5c(Cl)cccc5Cl)noc4C4CC4)cc3Cl)C2)c1 [cilofexor]
median relative decrease in hepatic steatosis [9]: −22.7%
moderate to severe pruritus (patients) [9]: 14%

SMILES: Cn1nc(C(=O)N(Cc2ccccc2)Cc2ccc(C(=O)O)cc2)c2c1-c1cc(Cl)ccc1OC2 [nidufexor]
maximum efficacy relative to GW4064 [10]: 57%
reduction of LFC (liver fat content) ([11]; Phase II, NASH): about 30%
rate of pruritus ([11]; high-dose group): 54%
rate of pruritus ([11]; low-dose group): 30%

Now from value to molecule, other results behind:

EC50 [5]: 6 nM
SMILES: CCCc1c(OCCCOc2ccc(OCC(=O)O)cc2)ccc(C(C)=O)c1O [L-165,041]

EC50 [3]: 1000 nM
EC50 [3, 12]: 800 nM
% max. rel. efficacy [3, 13]: 29 ± 4^b %
Emax [3, 14]: 21%
Emax [3, 15]: 34%
Emax [3, 16]: 29 ± 4%
SMILES: COC(=O)/C=C/c1cccc(N(Cc2ccc(-c3ccc(N(C)C)cc3)cc2)C(=O)C2CCCCC2)c1 [Fexaramine, reference compound]
oral bioavailability [6]: 12%

% antagonistic efficacy ([7]; 3.3 μM): 7%
% antagonistic efficacy ([7]; 10 μM): 26%
AUClast [8, 17]: 1200 ± 100 ng·h/mL
t1/2 [8, 17]: 14.4 ± 3 min
detected in plasma until (time after administration) ([8]; rat, intravenous Example 11, 5 mg/kg, metabolite): 1 h
CL [8, 18]: 70 ± 6.7 mL/min/kg
Vss [8, 18]: 1.4 ± 0.2 L/kg
detected after (time after oral administration) ([8]; rat, oral Example 11, 80 mg/kg): 3 h
% agonistic efficacy ([3]; Table 7, 10 μM): 0%
SMILES: CN(C)c1ccc(-c2ccc(CN(C(=O)C3CCCCC3)c3cc(F)cc(/C=C/C(=O)O)c3)cc2C#N)cc1 [Example 24]
